Results as given in patent publication US6656699B2, “Methods and compositions for glycosidase assays” (Reddy US Therapeutics, Inc., priority 2000, dated 2003).

Legend:
heparanase = biological target: T1, heparanase (Pedobacter heparinus, UniProt Q59289); assay: Heparanase assay: biotin-HS digestion with heparanase with or without excess unlabeled HS; type: biochemical, bacterial; conditions: 50 fold (5 μg) excess of unlabeled HS
T1 construct: purchased Seikagaku
Experimental: Biotin-labeled HS from Example 1 was digested with heparanase, and the reaction containing undegraded and degraded HS was bound to in a biotin-binding plate (FIG. 1). Streptavidin, conjugated with an enzyme, was added to the binding plate. Quantitation of the color reaction measured the amount of available biotin binding sites. A decrease in color from a known amount reflects HS digestion by heparanase.
A lyophilized powder of heparanase (Heparanase III obtained from Seikagaku) containing 0.1 units of enzymatic activity was hydrated in 100 μl of Reaction Buffer (3.33 mM calcium acetate pH 7.0, containing 0.1 mg/ml BSA). This solution was then diluted to a working concentration of heparanase solution (0.01 micro-units to 1 milli-unit) in Reaction Buffer. Enzyme activity was defined by the manufacturer of the heparanase (Seikagaku) as follows: one unit of enzyme activity is defined as amount required to generate 1 μmole of hexuronic acid per minute. Biotin-HS was diluted to a desired concentration in Reaction Buffer.
To determine heparanase activity, 10 μl of heparanase solution was mixed with 200 μl of the biotin-HS substrate in a 96 well plate. The reaction was incubated at 43° C. for 1 hour. […] Color development in the wells was assessed by measuring the optical density at 450 nm in a microplate reader (Labsystems, Muliskan Ascent model). […]

biotin-HS = assay: Digestion of biotin-HS by enzymes, detected with streptavidin-enzyme conjugate; type: biochemical; conditions: protease in place of heparanase; FIG. 6

T1 sequence (Q59289 25-659): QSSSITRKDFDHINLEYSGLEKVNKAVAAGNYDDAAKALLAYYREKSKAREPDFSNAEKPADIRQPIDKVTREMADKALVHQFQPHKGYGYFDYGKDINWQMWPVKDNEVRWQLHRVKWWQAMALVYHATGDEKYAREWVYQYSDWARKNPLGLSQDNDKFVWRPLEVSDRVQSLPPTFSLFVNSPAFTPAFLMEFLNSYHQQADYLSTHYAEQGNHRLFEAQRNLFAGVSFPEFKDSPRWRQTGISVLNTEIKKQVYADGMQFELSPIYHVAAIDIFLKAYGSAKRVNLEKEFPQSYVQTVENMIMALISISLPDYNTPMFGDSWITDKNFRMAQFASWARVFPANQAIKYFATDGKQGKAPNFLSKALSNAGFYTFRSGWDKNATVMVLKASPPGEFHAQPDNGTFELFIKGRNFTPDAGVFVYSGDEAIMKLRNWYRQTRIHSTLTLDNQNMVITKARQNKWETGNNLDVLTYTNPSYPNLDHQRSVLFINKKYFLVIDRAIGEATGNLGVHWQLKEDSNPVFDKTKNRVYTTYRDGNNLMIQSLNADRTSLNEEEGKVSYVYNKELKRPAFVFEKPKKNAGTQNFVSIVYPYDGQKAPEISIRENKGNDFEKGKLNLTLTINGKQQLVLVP

| Substance | Inhibition of heparanase activity toward biotin-HS (heparanase) | Activity leading to a decrease in the amount of biotin-HS detected by the assay (biotin-HS) |
| --- | --- | --- |
| heparan sulfate [unlabeled HS] | approximately 60% |  |
| trypsin |  | Neither protease tested (MMP or trypsin) demonstrated any activity |
